Assay results: ChEMBL document CHEMBL5291721, “A preclinical secondary pharmacology resource illuminates target-adverse drug reaction associations of marketed drugs” (Nat Commun, 2023)

Key:
Adenosine receptor A1 = target: T1, Adenosine receptor A1 (Homo sapiens, UniProt P30542)
T1 sequence (P30542 whole entry): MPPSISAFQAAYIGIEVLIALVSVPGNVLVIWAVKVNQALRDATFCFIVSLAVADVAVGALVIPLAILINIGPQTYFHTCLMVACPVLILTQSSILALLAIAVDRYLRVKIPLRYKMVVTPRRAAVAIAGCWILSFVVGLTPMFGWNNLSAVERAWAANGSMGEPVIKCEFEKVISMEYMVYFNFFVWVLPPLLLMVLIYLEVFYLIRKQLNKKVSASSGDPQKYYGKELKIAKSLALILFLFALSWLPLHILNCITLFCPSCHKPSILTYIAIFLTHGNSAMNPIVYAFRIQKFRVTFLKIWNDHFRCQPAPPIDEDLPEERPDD

[1] = target: Kappa-type opioid receptor (Homo sapiens, UniProt P41145)
Cannabinoid receptor 1 = Cannabinoid receptor 1 (Homo sapiens, UniProt P21554)
[2] = target: T2, Type-1 angiotensin II receptor (Homo sapiens, UniProt P30556)
T2 sequence (P30556 whole entry): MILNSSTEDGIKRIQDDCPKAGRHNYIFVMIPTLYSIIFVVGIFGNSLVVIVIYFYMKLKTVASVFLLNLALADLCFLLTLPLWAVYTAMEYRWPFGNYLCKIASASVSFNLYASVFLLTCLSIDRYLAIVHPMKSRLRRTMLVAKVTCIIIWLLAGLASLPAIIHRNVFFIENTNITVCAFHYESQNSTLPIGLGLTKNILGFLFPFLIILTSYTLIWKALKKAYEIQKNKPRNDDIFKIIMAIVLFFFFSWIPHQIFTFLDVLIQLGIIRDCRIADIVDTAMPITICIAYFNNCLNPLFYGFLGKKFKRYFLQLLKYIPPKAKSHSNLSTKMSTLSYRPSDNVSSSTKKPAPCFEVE

[3] = target: T3, 5-hydroxytryptamine receptor 1A (Homo sapiens, UniProt P08908); format: functional, cell-based
T3 sequence (P08908 whole entry): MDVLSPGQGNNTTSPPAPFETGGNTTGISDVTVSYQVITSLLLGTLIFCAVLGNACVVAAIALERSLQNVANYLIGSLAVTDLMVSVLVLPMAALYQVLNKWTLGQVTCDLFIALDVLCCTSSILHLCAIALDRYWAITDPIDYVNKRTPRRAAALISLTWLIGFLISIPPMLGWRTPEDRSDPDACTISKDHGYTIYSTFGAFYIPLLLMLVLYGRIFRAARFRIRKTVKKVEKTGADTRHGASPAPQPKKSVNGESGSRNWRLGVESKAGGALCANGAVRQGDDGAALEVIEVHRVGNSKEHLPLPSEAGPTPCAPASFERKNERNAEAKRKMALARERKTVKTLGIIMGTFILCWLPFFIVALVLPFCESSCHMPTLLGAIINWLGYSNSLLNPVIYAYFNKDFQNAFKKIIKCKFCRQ

[4] = target: T4, Equilibrative nucleoside transporter 1 (Homo sapiens, UniProt Q99808)
T4 sequence (Q99808 whole entry): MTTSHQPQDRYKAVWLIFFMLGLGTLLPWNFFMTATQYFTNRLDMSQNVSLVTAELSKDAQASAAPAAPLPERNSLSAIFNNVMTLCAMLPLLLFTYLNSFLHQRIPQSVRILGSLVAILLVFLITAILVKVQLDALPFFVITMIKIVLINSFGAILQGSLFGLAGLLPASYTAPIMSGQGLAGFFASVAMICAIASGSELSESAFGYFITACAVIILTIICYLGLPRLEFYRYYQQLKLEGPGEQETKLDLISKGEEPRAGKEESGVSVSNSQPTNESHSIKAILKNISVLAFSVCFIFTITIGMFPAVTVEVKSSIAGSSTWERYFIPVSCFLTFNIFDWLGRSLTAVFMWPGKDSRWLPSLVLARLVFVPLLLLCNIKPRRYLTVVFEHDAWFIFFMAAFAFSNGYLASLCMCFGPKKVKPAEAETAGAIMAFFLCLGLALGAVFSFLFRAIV

[5] = target: T5, Prostaglandin G/H synthase 1 (Rattus norvegicus, UniProt Q63921); format: functional
T5 sequence (Q63921 whole entry): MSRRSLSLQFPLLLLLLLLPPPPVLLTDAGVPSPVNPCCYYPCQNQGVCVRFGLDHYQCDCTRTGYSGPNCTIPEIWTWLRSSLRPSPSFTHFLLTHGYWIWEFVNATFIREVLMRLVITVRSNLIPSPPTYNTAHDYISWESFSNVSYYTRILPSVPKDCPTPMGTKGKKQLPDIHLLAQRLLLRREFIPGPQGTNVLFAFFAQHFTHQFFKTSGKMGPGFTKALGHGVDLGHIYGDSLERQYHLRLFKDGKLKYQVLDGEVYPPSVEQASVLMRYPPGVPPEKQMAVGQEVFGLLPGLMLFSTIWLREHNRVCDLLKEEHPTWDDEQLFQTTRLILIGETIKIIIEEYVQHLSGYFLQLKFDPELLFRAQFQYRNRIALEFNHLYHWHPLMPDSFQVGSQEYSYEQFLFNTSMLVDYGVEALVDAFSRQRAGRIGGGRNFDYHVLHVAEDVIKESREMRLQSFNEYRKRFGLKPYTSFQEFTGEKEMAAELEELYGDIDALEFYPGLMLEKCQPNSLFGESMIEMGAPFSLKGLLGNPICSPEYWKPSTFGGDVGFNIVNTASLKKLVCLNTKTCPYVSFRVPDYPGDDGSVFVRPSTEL

Estrogen receptor = target: T6, Estrogen receptor (Homo sapiens, UniProt P03372)
T6 sequence (P03372 whole entry): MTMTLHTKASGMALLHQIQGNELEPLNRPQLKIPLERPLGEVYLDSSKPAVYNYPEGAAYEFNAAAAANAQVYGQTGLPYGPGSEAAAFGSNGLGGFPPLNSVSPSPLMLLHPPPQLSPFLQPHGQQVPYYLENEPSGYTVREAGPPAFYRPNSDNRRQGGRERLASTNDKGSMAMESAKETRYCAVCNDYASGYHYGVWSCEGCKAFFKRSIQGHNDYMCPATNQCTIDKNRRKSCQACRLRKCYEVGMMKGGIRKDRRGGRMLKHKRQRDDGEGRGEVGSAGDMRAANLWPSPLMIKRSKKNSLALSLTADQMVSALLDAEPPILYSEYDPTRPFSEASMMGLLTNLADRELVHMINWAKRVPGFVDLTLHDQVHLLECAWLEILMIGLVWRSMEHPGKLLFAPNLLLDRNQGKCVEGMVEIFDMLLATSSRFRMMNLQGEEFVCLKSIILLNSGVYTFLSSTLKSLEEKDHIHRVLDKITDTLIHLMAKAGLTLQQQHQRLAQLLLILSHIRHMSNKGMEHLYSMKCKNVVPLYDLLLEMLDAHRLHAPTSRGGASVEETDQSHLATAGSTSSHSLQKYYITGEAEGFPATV

[6] = target: Sodium-dependent dopamine transporter (Homo sapiens, UniProt Q01959)
Also: assay procedure not described here.

Sequence of Sodium-dependent dopamine transporter (Q01959 whole entry): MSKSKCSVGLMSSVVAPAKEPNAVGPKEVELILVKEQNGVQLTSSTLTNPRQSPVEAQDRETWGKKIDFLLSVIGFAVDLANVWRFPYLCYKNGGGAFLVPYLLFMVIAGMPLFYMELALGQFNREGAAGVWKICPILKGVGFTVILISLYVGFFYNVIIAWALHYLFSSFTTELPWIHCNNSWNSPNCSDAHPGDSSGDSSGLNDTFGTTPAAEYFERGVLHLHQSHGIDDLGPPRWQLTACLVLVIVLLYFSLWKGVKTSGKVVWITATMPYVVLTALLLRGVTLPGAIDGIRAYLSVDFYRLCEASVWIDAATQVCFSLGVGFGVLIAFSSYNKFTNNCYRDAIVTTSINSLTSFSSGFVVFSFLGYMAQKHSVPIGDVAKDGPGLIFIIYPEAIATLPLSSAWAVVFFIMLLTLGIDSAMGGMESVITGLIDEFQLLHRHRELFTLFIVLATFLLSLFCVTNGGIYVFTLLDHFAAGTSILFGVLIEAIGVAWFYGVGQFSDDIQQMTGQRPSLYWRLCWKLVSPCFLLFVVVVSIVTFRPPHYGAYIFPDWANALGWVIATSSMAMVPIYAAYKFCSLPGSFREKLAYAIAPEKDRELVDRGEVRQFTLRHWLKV
Sequence of Cannabinoid receptor 1 (P21554 whole entry): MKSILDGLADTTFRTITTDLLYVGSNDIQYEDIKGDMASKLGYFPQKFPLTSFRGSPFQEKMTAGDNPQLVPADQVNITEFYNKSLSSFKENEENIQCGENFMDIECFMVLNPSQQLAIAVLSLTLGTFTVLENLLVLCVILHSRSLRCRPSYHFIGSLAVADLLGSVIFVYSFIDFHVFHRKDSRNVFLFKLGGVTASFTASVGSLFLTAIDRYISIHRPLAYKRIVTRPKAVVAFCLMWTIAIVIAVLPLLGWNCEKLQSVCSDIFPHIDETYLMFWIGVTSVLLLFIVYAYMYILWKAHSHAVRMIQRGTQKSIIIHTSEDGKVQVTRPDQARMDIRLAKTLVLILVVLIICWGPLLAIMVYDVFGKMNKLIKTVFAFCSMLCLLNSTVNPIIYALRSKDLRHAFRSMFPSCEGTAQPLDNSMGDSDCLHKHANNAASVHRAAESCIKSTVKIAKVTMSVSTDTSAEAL
Sequence of Kappa-type opioid receptor (P41145 whole entry): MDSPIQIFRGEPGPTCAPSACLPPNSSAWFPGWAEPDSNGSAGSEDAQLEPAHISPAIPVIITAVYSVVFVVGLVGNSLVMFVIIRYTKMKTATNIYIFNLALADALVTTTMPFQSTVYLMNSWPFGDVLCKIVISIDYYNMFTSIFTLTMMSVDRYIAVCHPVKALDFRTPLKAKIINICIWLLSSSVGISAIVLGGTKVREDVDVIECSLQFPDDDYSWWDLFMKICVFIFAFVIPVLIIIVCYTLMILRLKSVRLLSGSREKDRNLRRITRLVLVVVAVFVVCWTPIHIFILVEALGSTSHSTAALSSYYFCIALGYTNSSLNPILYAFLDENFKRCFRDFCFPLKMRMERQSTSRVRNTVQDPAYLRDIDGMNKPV

Row | AC50 [1] | AC50 (Cannabinoid receptor 1) | AC50 [2] | AC50 [3] | AC50 [4] | AC50 [5] | AC50 (Estrogen receptor) | AC50 [6] | Compound | AC50 (Adenosine receptor A1)
1 | – | – | – | – | – | – | – | – | Nc1ccc(S(N)(=O)=O)cc1 [SULFANILAMIDE] | > 30 µM
2 | > 30 µM | > 30 µM | > 30 µM | > 30 µM | > 30 µM | 0.003 µM | > 30 µM | > 30 µM | HYDROXOCOBALAMIN | –
